Reference: article PMC9886279, “A choline-releasing glycerophosphodiesterase essential for phosphatidylcholine biosynthesis and blood stage development in the malaria parasite” (eLife, 2022)

Target: T1, PfGDPD-HA (PfGDPD; glycerophosphodiesterase) (Plasmodium falciparum, UniProt Q8IM31)
T1 construct: gene PF3D7_1406300; endogenous locus, recodonised segment 24-475 aa, C-terminal 3xHA tag kept; 475-residue precursor with N-terminal signal peptide
Test: LC-MS/MS of GPC consumption and choline release by bead-bound affinity-purified enzyme
Assay type: biochemical
Conditions: enzyme immobilised on anti-HA beads; 100 mM HEPES pH 7.5, 150 mM NaCl, 10 mM MgCl2, 37°C; GPC 1 mM (Methods) or 10 mM (Figure 6 legend)

T1 sequence (Q8IM31 entry or part of it): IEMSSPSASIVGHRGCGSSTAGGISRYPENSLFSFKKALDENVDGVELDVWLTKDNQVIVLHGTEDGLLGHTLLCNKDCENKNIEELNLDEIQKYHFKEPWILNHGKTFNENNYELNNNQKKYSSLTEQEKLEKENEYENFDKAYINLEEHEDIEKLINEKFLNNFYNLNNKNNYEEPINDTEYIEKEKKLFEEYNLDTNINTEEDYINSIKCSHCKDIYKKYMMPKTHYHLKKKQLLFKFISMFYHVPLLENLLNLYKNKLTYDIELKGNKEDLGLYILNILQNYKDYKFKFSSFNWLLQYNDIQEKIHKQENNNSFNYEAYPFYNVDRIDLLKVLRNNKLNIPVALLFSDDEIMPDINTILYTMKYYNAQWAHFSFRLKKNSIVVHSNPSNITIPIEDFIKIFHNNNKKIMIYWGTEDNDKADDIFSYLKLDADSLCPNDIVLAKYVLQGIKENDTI

With C[N+](C)(C)CCOP(=O)([O-])OC[C@H](O)CO [GPC] the “LC-MS/MS of GPC consumption and choline release by bead-bound affinity-purified” value was “resulted in the time-dependent appearance of choline with a concomitant decrease in GPC levels”.
